The test system of assay [1] is SKBR3 cells. Briefly: SKBR3 Cell Viability Assay. The class given is cell-based. Conditions: CellTiter Glo, read-out: MCL-1 CV SKBR3 EC50. As to the method:
SKBR3 Cell Viability Assay Materials
SKBR3 Cells (ATCC HTB-30) were obtained from ATCC (Manassas, Va.) and cultured in McCoy 5A's medium (ATCC 30-2007)+10% fetal bovine serum (SH30071.03, HyClone, Pittsburgh, Pa.) plus 1× Penicillin-Streptomycin L-glutamine (Corning 30-009-C1, Corning, N.Y.)).
The cell viability assay was conducted in a 384-well tissue culture plate (Grenier 781086, Monroe, N.C.) in a total volume of 70 μL. Test compounds were prepared in 1,000×, serially diluted, and pre-spotted into 384-well tissue culture plate by Echo 555 Liquid Handler (Labcyte Inc., San Jose, Calif.). Seventy μ1 of 6,000 SKBR3 cells were dispensed into each well of the plate and incubated at 37° C. with 5% CO2 for 72 hours. At the end of incubation, 2× CellTiter Glo (CTG) reagents (1 part buffer with 2 parts substrate) (Promega, Madison, Wis.) were prepared, and the plate and the reagent were equilibrated to room temperature for 30 minutes. CTG reagent was added to each plate by Biomek FX at 20 μL/well with 5 times pipetting and mixing to induce cell lysis. Luminescence was read by Envision multimode reader (PerkinElmer). […] Percent inhibition was calculated as followed: % Inhibition=100%*(Well−Neg)/(Pos−Neg) Neg, negative control, DMSO Pos, positive control, 10 μM Puromycin

The target of assay [2] is MCL-1/Bim (Homo sapiens (Human), UniProt Q07820). The assay can be described thus: MCL-1/Bim Binding AlphaLISA Assay. The following applies: 6xHis-Mcl-1 (171-327) and biotinylated Bim peptide (51-76). As to the method:
MCL-1/Bim Binding AlphaLISA Assay.
Inhibition of the MCL-1 and Bim interaction was measured in the following AlphaLISA assay.
Recombinant human MCL-1 protein (C-terminal 6×His Tagged Mcl-1 containing residues 171-327) was generated at Gilead Sciences, Inc. (Foster City, Calif.). A biotinylated peptide derived from human Bim (residues 51-76) was purchased from CPC Scientific (Sunnyvale, Calif.). (CPC 834113). AlphaLISA anti-6His-acceptor beads (AL128R), AlphaScreen Streptavidin donor beads (6760002B), and Proxiplate-384 Plus (6008289) were purchased from PerkinElmer.
The AlphaLISA assay was performed in a 384-well Proxiplate in a total volume of 40 μL. The reaction mixture contained 0.0625 nM 6× His-Mcl-1 (171-327), 0.0625 nM biotinylated-Bim peptide, 10 μg/mL AlphaLISA anti-6×His-AlphaLISA acceptor beads, 40 μg/mL AlphaScreen streptavidin donor beads, and serially diluted test compounds in the binding buffer (20 mM Hepes, pH 7.5 (Teknova H1035); 150 mM NaCl (Promega V4221); 0.002% Brij 35 (Thermo Scientific 20150); 1 mM Dithiothreitol (DTT) Solution (Affymetrix 70726); 0.01% BSA (BioLabs B9000S)). 1,000× test compounds were pre-spotted onto 384-well Proxiplate (Labcyte Echo) by Echo 555 Liquid Handler (Labcyte Inc., San Jose, Calif.) followed by incubation of 5 μl Mcl-1(171-327) for 1 hour. Then 5 μL Bim (51-76) was added and incubated for 2 hours. Five μL AlphaLISA anti-6His-AlphaLISA acceptor beads were then added for 1 hour followed by addition of 5 μL AlphaScreen streptavidin donor beads for 1 hour. The reaction plates were then read on an Envision multimode reader (PerkinElmer) using AlphaScreen settings. […] Percent inhibition was calculated as shown below: % Inhibition=100%*(Well−Neg)/(Pos−Neg) Neg: negative control, DMSO Pos: positive control, no Mcl-1 protein, no biotinylated-Bim peptide

Read-outs that look alike come from different tables or passages of the source.

MCL-1/Bim, sequence (Q07820 171-327): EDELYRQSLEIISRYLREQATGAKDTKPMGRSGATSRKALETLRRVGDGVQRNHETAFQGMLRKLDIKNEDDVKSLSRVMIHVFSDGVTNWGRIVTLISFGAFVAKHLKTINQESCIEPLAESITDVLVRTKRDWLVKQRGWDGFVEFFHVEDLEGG

For the compound `CC[C@H]1CN2C[C@@]3(CCCc4cc(Cl)ccc43)COc3ccc(cc32)C(=O)N=[S@](=O)(NC(=O)CC(C)C)CCC/C=C/[C@H](OC)[C@@H]1C` [Example 26], the EC50 in assay [1] (Homo sapiens, SK-BR-3, 72 h) came out at 1690 nM. Besides, the IC50 in assay [2] came out at 1.8 nM.
`CO[C@H]1/C=C/CCCS(=O)(NC(=O)CCc2ccnn2C)=NC(=O)c2ccc3c(c2)N(C[C@@H]2CC[C@H]21)C[C@@]1(CCCc2cc(Cl)ccc21)CO3` (single isomer, unassigned) [Example 48]: in assay [1] (Homo sapiens, SK-BR-3, 72 h), the EC50 is 8450 nM. This compound also returned a half-maximal inhibitory concentration (IC50) in assay [2] of 3.7 nM.
For `CO[C@H]1/C=C/C[C@H](C)[C@@H](C)[S@](=O)(NC(=O)CCc2ccnn2C)=NC(=O)c2ccc3c(c2)N(C[C@@H]2CC[C@H]21)C[C@@]1(CCCc2cc(Cl)ccc21)CO3` [Example 50], the EC50 in assay [1] (Homo sapiens, SK-BR-3, 72 h) turned out to be 3320 nM. This compound came in with an IC50 in assay [2] of 1.4 nM.
The matching figures for `COC1Cc2cc(C(=O)N[S@@]3(=O)=NC(=O)c4ccc5c(c4)N(C[C@@H]4CC[C@H]4[C@@H](OC)/C=C/C[C@H](C)C3)C[C@@]3(CCCc4cc(Cl)ccc43)CO5)cn2C1` (stereo partly drawn) [Example 205]: 58.9 nM and 0.075 nM.
For `CC[C@H]1CN2C[C@@]3(CCCc4cc(Cl)ccc43)COc3ccc(cc32)C(=O)N=[S@](=O)(NC(C)=O)CCC/C=C/[C@H](OC)[C@@H]1C` [Example 25], the EC50 in assay [1] (Homo sapiens, SK-BR-3, 72 h) turned out to be 2010 nM. This compound returned an IC50 in assay [2] of 0.6 nM.
Consider `CO[C@H]1/C=C/CCC[S@@](=O)(NC(=O)CCc2ccnn2C)=NC(=O)c2ccc3c(c2)N(C[C@@H]2CC[C@H]21)C[C@@]1(CCCc2cc(Cl)ccc21)CO3` [Example 22], for which the EC50 in assay [1] (72 hours) is 259 nM. Also, the IC50 in assay [2] was 0.1 nM.
In the case of `CC[C@H]1CN2C[C@@]3(CCCc4cc(Cl)ccc43)COc3ccc(cc32)C(=O)N=[S@](=O)(NC(=O)Cc2cnccn2)CCC/C=C/[C@H](OC)[C@@H]1C` [Example 20], in assay [1] (Homo sapiens, SK-BR-3, 72 h), the EC50 turned out to be 2060 nM. For the same compound, in assay [2], the IC50 was 0.5 nM.
In the case of `CO[C@H]1/C=C/CCC[S@@](=O)(NC(=O)CCc2ccn(C)n2)=NC(=O)c2ccc3c(c2)N(C[C@@H]2CC[C@H]21)C[C@@]1(CCCc2cc(Cl)ccc21)CO3` [Example 51], the EC50 in assay [1] (Homo sapiens, SK-BR-3, 72 h) came out at 705 nM. This compound showed an IC50 in assay [2] of 0.1 nM.
Take `CO[C@H]1/C=C/C[C@H](C)[C@@H](C)[S@@](=O)(NC(=O)c2cnn(C3COC3)c2)=NC(=O)c2ccc3c(c2)N(C[C@@H]2CC[C@H]21)C[C@@]1(CCCc2cc(Cl)ccc21)CO3` [Example 152]: the half-maximal effective concentration (EC50) in assay [1] (Homo sapiens, SK-BR-3, 72 h) amounted to 55.7 nM. Also, the IC50 in assay [2] worked out at 0.057 nM.
In the case of `COc1nn(C)cc1C(=O)N[S@@]1(=O)=NC(=O)c2ccc3c(c2)N(C[C@@H]2CC[C@H]2[C@@H](O)/C=C/C[C@H](C)[C@H]1C)C[C@@]1(CCCc2cc(Cl)ccc21)CO3` [Example 359], the EC50 in assay [1] (Homo sapiens, SK-BR-3, 72 h) turned out to be 19 nM. Besides, the IC50 in assay [2] amounted to 0.038 nM.
As to `CO[C@H]1/C=C/CCC[S@@](=O)(NC(=O)NCc2ccc(F)cc2)=NC(=O)c2ccc3c(c2)N(C[C@@H]2CC[C@H]21)C[C@@]1(CCCc2cc(Cl)ccc21)CO3` [Example 37], the EC50 in assay [1] (Homo sapiens, SK-BR-3, 72 h) came to 1610 nM. The IC50 in assay [2] is 1.4 nM.
With `CO[C@H]1/C=C/C[C@H](C)C[S@@](=O)(CC(=O)N[C@@H]2CC[C@@H](O)C2)=NC(=O)c2ccc3c(c2)N(C[C@@H]2CC[C@H]21)C[C@@]1(CCCc2cc(Cl)ccc21)CO3` [Example 222], in assay [1] (Homo sapiens, SK-BR-3, 72 h), the EC50 was determined as 80.1 nM. Besides, the IC50 in assay [2] was determined as 0.044 nM.
Take `CO[C@H]1/C=C/CCCS(=O)(NC(=O)CCN(C)C)=NC(=O)c2ccc3c(c2)N(C[C@@H]2CC[C@H]21)C[C@@]1(CCCc2cc(Cl)ccc21)CO3` (stereo partly drawn) [Example 15]: in assay [1] (Homo sapiens, SK-BR-3, 72 h), the EC50 amounted to 7730 nM. The IC50 in assay [2] was 7.4 nM.
`CO[C@H]1/C=C/C[C@H](C)C[S@@](=O)(NC(=O)c2ccc3c(c2)COCC3)=NC(=O)c2ccc3c(c2)N(C[C@@H]2CC[C@H]21)C[C@@]1(CCCc2cc(Cl)ccc21)CO3` [Example 157]: the EC50 in assay [1] (Homo sapiens, SK-BR-3, 72 h) stood at 64.8 nM. Besides, the IC50 in assay [2] amounted to 0.234 nM.
On to `CO[C@H]1/C=C/C[C@H](C)C[S@@](=O)(NC(=O)NCC2CC2)=NC(=O)c2ccc3c(c2)N(C[C@@H]2CC[C@H]21)C[C@@]1(CCCc2cc(Cl)ccc21)CO3` [Example 107], for which the IC50 in assay [2] is 0.1 nM.
For `CC[C@H]1CN2C[C@@]3(CCCc4cc(Cl)ccc43)COc3ccc(cc32)C(=O)N=[S@](=O)(NC(=O)NC(C)C)CCC/C=C/[C@H](OC)[C@@H]1C` [Example 19], the EC50 in assay [1] (Homo sapiens, SK-BR-3, 72 h) was 1080 nM. Further, in assay [2], the IC50 turned out to be 1.1 nM.
For `COc1nn(C)cc1C(=O)N[S@@]1(=O)=NC(=O)c2ccc3c(c2)N(C[C@@H]2CC[C@H]2[C@@H](OC)/C=C/[C@H](OC(=O)CCc2ccccc2)[C@H](C)C1)C[C@@]1(CCCc2cc(Cl)ccc21)CO3` [Example 377], the EC50 in assay [1] (72 hours) was 34 nM. In assay [2], this compound displayed an IC50 of 0.106 nM.

The values above are taken from US10988451B2, “MCL-1 inhibitors” (Gilead Sciences, Inc., priority 2018, dated 2021).
